The values that follow come from paper PMC7822874, “Chemoprotective antimalarials identified through quantitative high-throughput screening of Plasmodium blood and liver stage parasites” (Scientific Reports, 2021).

The subject of experiment [1] is P. falciparum Dd2 Cytb G131S. Description: SYBR Green ABS proliferation assay, NCGC00374598 selected clone C11. The conditions noted are these: second value triple, c6, […]; for AC50: Plasmodium falciparum, DD2, cytochrome b mutant line, read-out: log AC50, mean (converted); for log AC50, mean: cytochrome b mutant line. The class given is cell-based, Plasmodium falciparum. The procedure, abridged: (§1)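 72 h SYBR Green-I read; % response = relative growth vs controls. Clones from resistance selection, cloned by limiting dilution; 37 °C, 5% CO2/5% O2/90% N2.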

Experiment [2] relates to P. falciparum Dd2 Cytb F123L. Nature of the experiment: SYBR Green ABS proliferation assay, NCGC00473217 selected clone G08. The class given is cell-based, Plasmodium falciparum. Further details: log AC50, mean: unit: log10(M); call rule not given here. Conditions: fifth value triple, c15, […]; for AC50: Plasmodium falciparum, DD2, cytochrome b mutant line, read-out: log AC50, mean (converted); for log AC50, mean: cytochrome b mutant line. The method, boiled down: as §1

For experiment [3], the system named is luciferase-expressing P. berghei liver stage parasites in HepG2 cells. Nature of the experiment: Inhibition of liver-stage development assay (ILSDA), Method 2 (WRAIR, 96-well). Format: cell-based, Plasmodium berghei. The conditions noted are these: for Activity direction (Decrease / Inactive): P. berghei liver stage; for AC50: Plasmodium berghei; for Max Resp (signal direction of the dose response): Method 2, Decrease = decreasing P. berghei viability with dose, Increase = increasing signal, Inactive = no dose response.

In experiment [4] the test system is P. falciparum Dd2 Cytb V259L. Nature of the experiment: SYBR Green ABS proliferation assay, NCGC00473217 selected clone F06. Details: log AC50, mean: unit: log M. The class given is cell-based, Plasmodium falciparum. The conditions noted are these: third value triple, c9, […]; for AC50: Plasmodium falciparum, DD2, cytochrome b mutant line, read-out: log AC50, mean (converted); for log AC50, mean: cytochrome b mutant line. The procedure, abridged: as §1

The test system of experiment [5] is P. falciparum Dd2 Cytb A122D. Description: SYBR Green ABS proliferation assay, NCGC00473217 selected clone F12. The class given is cell-based, Plasmodium falciparum. The conditions noted are these: fourth value triple, c12, […]; for AC50: Plasmodium falciparum, DD2, cytochrome b mutant line, read-out: log AC50, mean (converted); for log AC50, mean: cytochrome b mutant line. Details: log AC50, mean: unit: Log[M]. The method, boiled down: as §1

Experiment [6] concerns Plasmodium falciparum Dd2 asexual blood stage parasites. Description: microbe, parasite or virus in culture. Further details: species or system Plasmodium falciparum Dd2 in human erythrocytes; single determination (one 11-point concentration-response curve). Conditions: Plasmodium falciparum, DD2, Erythrocyte, 72 h; read-out: AC50.
Experiment [7] has as its system T1, Plasmodium falciparum Dd2-attB-ScDHODH (transgenic line expressing yeast DHODH), asexual blood stages.
T1 construct: Dd2-attB-ScDHODH, the transgenic line that expresses yeast DHODH
Description: organism not typed. Further details: replicate k of 3 (each line is one of three independent assays; the three lines of one compound and parasite line follow each other). The conditions noted are these: 72 h, n = 1. The procedure, abridged:
(§2)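 Both lines were tested side by side with selected compounds, repeated in three independent assays. Differences between parental and ScDHODH-expressing parasites were then assessed with a two-sided Student's t-test.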

The subject of experiment [8] is T2, Plasmodium falciparum Dd2-attB (parental line), asexual blood stages.
T2 construct: Dd2-attB, the isogenic parental line
Nature of the experiment: microbe, parasite or virus in culture. Further details: replicate k of 3 (each line is one of three independent assays; the three lines of one compound and parasite line follow each other). Conditions: n = 1; for Individual replicates / Log AC50 (M): 72 h; for AC50: Plasmodium falciparum, DD2, 72 h, read-out: Individual replicates / Log AC50 (converted). The method, boiled down:
as §2

In experiment [9] the test system is P. berghei-ANKA-GFP-LucCON liver stage parasites in HepG2-A16-CD81EGFP cells. Nature of the experiment: P. berghei liver stage Pb-Luc assay, Method 1 (UCSD, 1536-well). Format: cell-based, Plasmodium berghei. Conditions: Method 1; Decrease = decreasing P. berghei viability with dose, Increase = increasing signal, Inactive = no dose response.
[10] abbreviates: HepG2, P. berghei liver stage, Method 2, dose response, read-out: AC50.
The mark [11] stands for this setting: HepG2, P. berghei liver stage, Method 2, dose response, read-out: Log AC50 (converted).
Where [12] appears, read: HepG2, Method 2, Hill fit, 50% of maximum activity response, read-out: AC50.
Setting [13] is: HepG2, Method 2, log10 of molar AC50 from Hill fit, read-out: Log AC50 (converted).

Molecules are shown by their SMILES. Values joined by “and” are separate entries in the source; they are usually repeats but may differ in a detail not shown here. Identical values can stand only once. Like-named read-outs stand apart in the source and are kept apart here.

Turning to `CCc1nc2c(c(-c3ccc(O)cc3)n1)CCN(Cc1ccc(OC(F)(F)F)cc1)CC2` [NCGC00480301-01], the AC50 is 5.11 µM in experiment [1]; 7.78 µM in experiment [2]; 5.73 µM in experiment [4]; 6.18 µM in [5]; 1.5 µM in [6]. Also, the “Activity direction (Decrease / Inactive)” value in [3] (Method 2, dose response) is “Inactive”.
With `O=C(O)C(F)(F)F.Oc1ccc(-c2nc(C3CC3)nc3c2CCN(CC2CCCCC2)CC3)cc1` [NCGC00480361-02], the “log AC50, mean” value in experiment [1] is given as -5.282; in experiment [2] it was -6.465; in experiment [4], -5.515; in [5], -5.499. For the same molecule, the “Individual replicates / Log AC50 (M)” value in [7] is -5.0486 Log AC50 (M) and -5.1986 Log AC50 (M); in experiment [8] it was -5.2486 Log AC50 (M).
In the case of `O=[S+]([O-])(c1cccs1)N1CCc2nc(C3CC3)nc(-c3ccc(Cl)cc3)c2CC1` [NCGC00476969-01], the AC50 is 7.78 µM in [1], 12.3 µM in experiment [2], 11.9 µM in [4] and 13.8 µM in [5]. Further, the “Activity direction (Decrease / Inactive)” value in experiment [3] (Method 2, dose response) is “Inactive”.
As to `O=c1[nH]c(N2CCOCC2)nc2c1CCN(Cc1cc(F)c(F)cc1F)CC2` [NCGC00440659-01], the AC50 in experiment [1] was 11.4 µM; in [2], 4.91 µM; in [4], 18.1 µM; in [5], 17.4 µM; in experiment [6], 15 µM. Further, the “Activity direction (Decrease / Inactive)” value in experiment [3] (Method 2, dose response) was “Inactive”.
On to `CCCN1C(c2ccccc2)=NS(=O)(=O)c2cc(NC(=O)c3cccs3)ccc21` [NCGC00532332-01], for which the AC50 was 0.861 µM in experiment [1]; 2 µM in experiment [2]; 35 nM in [3] (setting [10]); 35.5 nM in experiment [3] (setting [11]); 4.32 µM in experiment [4]; 1.53 µM in [5]. Further, in [3] (Method 2, dose response), the “Activity direction (Decrease / Inactive)” value is recorded as “Decrease”.
For the molecule `CCCN1C(c2ccccc2)=NS(=O)(=O)c2cc(NC(=O)c3ccc(F)cc3)ccc21` [NCGC00532331-01], the AC50 is 0.71 µM in experiment [1]; 3.3 µM in experiment [2]; 17800 nM in experiment [3] (setting [10]); 17800 nM in [3] (setting [11]); 2.33 µM in experiment [4]; 1.85 µM in experiment [5]. The “Activity direction (Decrease / Inactive)” value in experiment [3] (Method 2, dose response) was “Decrease”.
In the case of `CC(=O)Nc1ccc(CN2CCc3nc(C(C)C)nc(-c4ccc(Cl)cc4)c3CC2)cc1` [NCGC00374598-01], the AC50 is 4.91 µM in experiment [1]; 0.778 µM in experiment [2]; 501 nM in experiment [3] (setting [12]); 501 nM in experiment [3] (setting [13]); 4.91 µM in [4]; 3.35 µM in experiment [5]. In addition, the results for the AC50 in [8] and in experiment [6] were 1.26 µM and 2.66 µM, respectively. The “Individual replicates / Log AC50 (M)” value in experiment [7] is -5.1486 Log AC50 (M) and -4.9986 Log AC50 (M) and -5.3986 Log AC50 (M); in [8] it was -5.6986 Log AC50 (M) and -5.7986 Log AC50 (M). Besides, the “Max Resp (signal direction of the dose response)” value in [3] and in [9] was “Decrease” throughout.
Consider `O=C(O)C(F)(F)F.Oc1ccc(-c2nc(C3CC3)nc3c2CCN(Cc2ccc(F)cc2)CC3)cc1` [NCGC00480352-02], for which the “log AC50, mean” value in experiment [1] is on record as -5.315; in experiment [2] it was -5.432; in experiment [4], -5.399; in experiment [5], -5.349. Moreover, the “Individual replicates / Log AC50 (M)” value was -5.0486 Log AC50 (M) (2×) and -4.8486 Log AC50 (M) in [7]; -4.9986 Log AC50 (M) and -5.0986 Log AC50 (M) (2×) in [8].
In the case of `CC(C)c1nc2c(c(-c3ccc(O)cc3)n1)CCN(Cc1ccc(OC(F)(F)F)cc1)CC2` [NCGC00480325-01], the AC50 is 5.31 µM in [1]; 6.68 µM in [2]; 8.73 µM in experiment [4]; 6.43 µM in [5]; 2.99 µM in experiment [6].
On to `Oc1ccc(-c2nc(C3CC3)nc3c2CCN(Cc2ccc(F)cc2)CC3)cc1` [NCGC00480352-01], for which the AC50 is 7.78 µM in experiment [1], 6.93 µM in experiment [2], 7.5 µM in experiment [4] and 5.64 µM in experiment [8]. Moreover, the “Individual replicates / Log AC50 (M)” value in experiment [7] is -5.1486 Log AC50 (M) (2×) and -5.1986 Log AC50 (M); in experiment [8], -5.2986 Log AC50 (M) and -5.2486 Log AC50 (M). Further, in experiment [5], the “log AC50, mean” value is -4.975.
Turning to `c1ccc(OCCNc2nc(-c3cccnc3)nc3c2CCNCC3)cc1` [NCGC00443183-01], the AC50 is 6.93 µM in [1], 5.11 µM in experiment [2], 5.73 µM in [4] and 7.21 µM in [5]. In experiment [3] (Method 2, dose response), the “Activity direction (Decrease / Inactive)” value is on record as “Inactive”.
Regarding `Oc1ccc(-c2nc(C3CC3)nc3c2CCN(CC2CCCCC2)CC3)cc1` [NCGC00480361-01], the AC50 in experiment [1] was 6.43 µM; in experiment [8], 4.48 µM; in [6], 4.73 µM. For the same molecule, the “Individual replicates / Log AC50 (M)” value in [7] was -5.2486 Log AC50 (M) and -5.1486 Log AC50 (M); in experiment [8] it was -5.4486 Log AC50 (M) and -5.3986 Log AC50 (M). Moreover, the “log AC50, mean” value is reported as -5.309 in experiment [2], -5.075 in [4] and -5.009 in experiment [5]. Besides, in experiment [3] (Method 2, dose response), the “Activity direction (Decrease / Inactive)” value is “Inactive”.
Turning to `CN(C)c1nc2c(c(=O)[nH]1)CCN(Cc1ccc(F)cc1Cl)CC2` [NCGC00440505-01], the AC50 in experiment [1] is 6.18 µM; in experiment [2] it was 1.74 µM; in experiment [4] it was 10.2 µM; in experiment [5] it was 5.51 µM; in experiment [6], 10.6 µM.
The matching figures for `CC(C)c1nc2c(c(-c3ccc(O)cc3)n1)CCN(Cc1ccc(C(F)(F)F)cc1)CC2` [NCGC00480320-01]: 3.76 µM, 4.55 µM, 4.73 µM, 4.91 µM and 5.31 µM.
`COc1ccc(-c2nc(C3CC3)nc3c2CCN(Cc2cc(C)on2)CC3)cc1` [NCGC00374666-01]: the AC50 in [1] is 8.09 µM; in [2], 5.31 µM; in [3] (setting [12]), 794 nM; in experiment [3] (setting [13]), 794 nM; in experiment [4] it was 8.09 µM; in experiment [5], 6.93 µM. Further, the “Max Resp (signal direction of the dose response)” value in experiment [3] was “Decrease”.
For the molecule `CC(C)c1nc2c(c(-c3ccc(O)cc3)n1)CCN(Cc1cccc3ccccc13)CC2` [NCGC00480323-01], the AC50 in experiment [1] was 4.06 µM; in experiment [2], 4.22 µM; in experiment [4], 4.55 µM; in experiment [5] it was 4.73 µM. Also, the “Activity direction (Decrease / Inactive)” value in experiment [3] (Method 2, dose response) is recorded as “Inactive”.
`O=C(c1ccc(C(F)(F)F)cc1)N1CCc2nc(C3CC3)nc(-c3ccc(Cl)cc3)c2CC1` [NCGC00476963-01]: the AC50 in experiment [1] was 12.8 µM; in experiment [2] it was 8.41 µM; in experiment [4], 15.8 µM; in experiment [5] it was 15 µM; in [6] it was 13.3 µM.
